Consider 18 compounds from patent publication US20260374766A1, “METHODS FOR TREATING CANCER” (Antares Therapeutics, Inc., priority 2022, published 2026).

SMILES strings stand for the structures. pIC50, pKd: −log10 of the molar value.

The target in experiment [1] is T1, p53 Y220C mutant protein (amino acid residues 94-293) (Homo sapiens, UniProt P04637, Y220C).
T1 construct: p53 Y220C mutant protein (amino acid residues 94-293)
The experiment can be described thus: Surface Plasmon Resonance (SPR) assay, Kd_kinetic. Particulars: SPR; p53 Y220C; read-out: SPR P53 Y220C KD kinetic. The format is binding. In a few lines: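 Biacore 8K SPR; 16 or 20 °C; Tris 50 mM pH 7.5, NaCl 100 mM, DTT 1 mM, Brij35 0.01%, Tween-20 0.05%, DMSO 1%. Kd_kinetic by 1:1 fit.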

The target of experiment [2] is p53 Y220C (Homo sapiens, UniProt P04637, Y220C). Briefly: Luciferase Reporter Assay (Luc), p53 response element, NClH1299 cells with inducible p53 Y220C. The settings on record: luciferase reporter, NClH1299 inducible p53 Y220C, 6 hour; for AC50: read-out: Luc P53 Y220C AC50. It counts as cell-based. In a few lines:
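Steps: seed 5,000 cells/well; induce mutant p53 with 0.5 ug/mL doxycycline for 24 h; treat with compound 6 h; add equal volume One-Glo, shake 5 min at room temperature; measure luciferase immediately.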
(In general: A reporter such as luciferase makes a cellular process visible.)

Experiment [3] has as its system NUGC3 p53 Y220C. The experiment can be described thus: Cell Proliferation Assay (CellTiter-Glo, CTG), NUGC3 p53 Y220C. It counts as cell-based. Particulars: Homo sapiens, NUGC-3, 120 h, NUGC3 cells, 5 days, CellTiter-Glo. In short, it runs like this:
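Tet-One inducible p53 Y220C or R273H constructs were stably introduced into NCI-H1299 by lentiviral transduction; NUGC3 was used as is. Cells (250-500 per well) were exposed to compound for 5 days, then CellTiter-Glo was added for 10 min at room temperature and IC50 was calculated from luminescence.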

In experiment [4] the test system is H1299 p53 Y220C. Briefly: Cell Proliferation Assay (CellTiter-Glo, CTG), H1299 p53 Y220C (NClH1299-inducible p53 Y220C). The format is cell-based. The settings on record: Homo sapiens, NCI-H1299, 120 h, NClH1299-inducible p53 Y220C cells, 5 days, CellTiter-Glo. In short, it runs like this: (§1)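 NClH1299 lines stably transduced with Tet-inducible p53 Y220C or R273H, plus NUGC3, were treated with compound for 5 days at 250-500 cells/well. IC50 derived from CellTiter-Glo luminescent signal after 10 min room-temperature incubation.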
Background: ATP-based viability assays read luminescence as a measure of living cells.

The subject of experiment [5] is H1299 p53 R273H. Briefly: Cell Proliferation Assay (CellTiter-Glo, CTG), H1299 p53 R273H (NClH1299-inducible p53 R273H). The settings on record: Homo sapiens, NCI-H1299, 120 h, NClH1299-inducible p53 R273H cells, 5 days, CellTiter-Glo. The format is cell-based. In a few lines:
as §1

T1 sequence (P04637 94-293, stated change not applied): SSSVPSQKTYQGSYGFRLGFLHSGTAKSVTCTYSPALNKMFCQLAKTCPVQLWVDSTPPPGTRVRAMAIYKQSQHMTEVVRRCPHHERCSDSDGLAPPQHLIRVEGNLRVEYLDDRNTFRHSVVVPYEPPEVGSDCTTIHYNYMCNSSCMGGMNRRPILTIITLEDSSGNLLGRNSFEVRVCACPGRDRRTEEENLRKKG

What is called pKd is the negative decadic logarithm of the Kd, by convention in mol/L. By AC50 is commonly meant the midpoint of the concentration-response curve, whichever way the signal moves. The Emax is the size of the effect at its maximum, as opposed to the concentration needed. For orientation: pIC50 means −log10 of the IC50, conventionally taken in molar units. `CN1CC[C@@H](Nc2cccn3c(SC(F)(F)F)c(C#CCNc4ccc(C(=O)NCCS(C)(=O)=O)cc4)cc23)[C@@H](F)C1` [Example 430, 4-{[3-(8-{[(3S,4R)-3-fluoro-1-methylpiperidin-4-yl]amino}-3-[(trifluoromethyl)sulfanyl]indolizin-2-yl)prop-2-yn-1-yl]amino}-N-(2-methanesulfonylethyl)benzamide]: the pKd in experiment [1] is more than 8.00. In addition, the AC50 in experiment [2] is less than 750 nM. Also, in experiment [2], the Emax is more than 90%. The pIC50 was more than 6.12 in experiment [3], more than 6.12 in experiment [4] and not above 5.00 in experiment [5].

In the case of `C[C@H](O)CNC(=O)c1ccc(NCC#Cc2cc3c(N[C@@H]4CCN(C)C[C@@H]4F)cccn3c2SC(F)(F)F)cc1` [Example 431], in experiment [1], the pKd is more than 8.00. Besides, the AC50 in experiment [2] was less than 750 nM. This compound registered an Emax in experiment [2] of more than 90%. Besides, the pIC50 in experiment [3] was more than 6.12; in experiment [4] it was more than 6.12; in experiment [5], not above 5.00.

With `CNC(=O)c1ccc(NCC#Cc2cc3c(N[C@@H]4CCN(C)C[C@@H]4F)cccn3c2SC(F)(F)F)c(C#N)c1` [Example 432, 3-cyano-4-{[3-(8-{[(3S,4R)-3-fluoro-1-methylpiperidin-4-yl]amino}-3-[(trifluoromethyl)sulfanyl]indolizin-2-yl)prop-2-yn-1-yl]amino}-N-methylbenzamide], in experiment [1], the pKd was more than 8.00. For the same compound, in experiment [2], the AC50 is less than 750 nM. The same compound gave an Emax in experiment [2] of more than 90%. For the same compound, the pIC50 in experiment [3] is more than 6.12; in experiment [4], more than 6.12; in experiment [5], not above 5.00.

Take `CNC(=O)c1ccc(NCC#Cc2cc3c(N[C@@H]4CCN(C)C[C@@H]4F)cccn3c2SC(F)(F)F)c(OC)n1` [Example 433, 5-{[3-(8-{[(3S,4R)-3-fluoro-1-methylpiperidin-4-yl]amino}-3-[(trifluoromethyl)sulfanyl]indolizin-2-yl)prop-2-yn-1-yl]amino}-6-methoxy-N-methylpyridine-2-carboxamide]: the pKd in experiment [1] was more than 8.00. Moreover, in experiment [2], the AC50 was less than 750 nM. In experiment [2], this compound yielded an Emax of more than 90%. In addition, the results for the pIC50 in experiment [3], in experiment [4] and in experiment [5] were more than 6.12, more than 6.12 and 5.10 to 5.30, respectively.

In the case of `CNC(=O)c1ccc(NCC#Cc2cn3c(N[C@@H]4CCNC[C@@H]4F)cccc3c2SC(F)(F)F)c(OC)c1` [Example 434], in experiment [1], the pKd is more than 8.00. In experiment [2], the AC50 was less than 750 nM. This compound also yielded an Emax in experiment [2] of 80 to 90%. Moreover, the pIC50 in experiment [3] was more than 6.12; in experiment [4] it was more than 6.12; in experiment [5], 5.10 to 5.30.

On to `CNC(=O)c1ccc(NCC#Cc2cc3c(N[C@@H]4CCNC[C@@H]4F)cccn3c2SC(F)(F)F)c(OC2COC2)c1` [Example 435], for which, in experiment [1], the pKd is more than 8.00. Besides, the AC50 in experiment [2] was less than 750 nM. The Emax in experiment [2] is more than 90%. Also, the values for the pIC50 in experiment [3], in experiment [4] and in experiment [5] were more than 6.12, more than 6.12 and not above 5.00, respectively.

Take `CNC(=O)c1ccc(NCC#Cc2cc3c(N[C@@H]4CCN(C)C[C@@H]4F)cccn3c2SC(F)(F)F)c(OCF)c1` [Example 436, 4-{[3-(8-{[(3S,4R)-3-fluoro-1-methylpiperidin-4-yl]amino}-3-[(trifluoromethyl)sulfanyl]indolizin-2-yl)prop-2-yn-1-yl]amino}-3-(fluoromethoxy)-N-methylbenzamide]: the pKd in experiment [1] was more than 8.00. In experiment [2], the AC50 is less than 750 nM. In experiment [2], this compound came in with an Emax of more than 90%. Besides, the negative logarithm of the IC50 (pIC50) in experiment [3] was more than 6.12; in experiment [4] it was more than 6.12; in experiment [5], not above 5.00.

Consider `CN1CC[C@@H](Nc2cccn3c(SC(F)(F)F)c(C#CCNc4ccc(P(C)(C)=O)c5ocnc45)cc23)[C@@H](F)C1` [Example 437, 7-(dimethylphosphoryl)-N-[3-(8-{[(3S,4R)-3-fluoro-1-methylpiperidin-4-yl]amino}-3-[(trifluoromethyl)sulfanyl]indolizin-2-yl)prop-2-yn-1-yl]-1,3-benzoxazol-4-amine], for which the pKd in experiment [1] is more than 8.00. For the same compound, the AC50 in experiment [2] was less than 750 nM. Also, the Emax in experiment [2] was more than 90%. For the same compound, the pIC50 in experiment [3] was more than 6.12; in experiment [4] it was more than 6.12; in experiment [5] it was not above 5.00.

Regarding `CS(=O)(=O)CCNC(=O)c1ccc(NCC#Cc2cc3c(N[C@@H]4CCNC[C@@H]4F)cccn3c2SC(F)(F)F)cc1` [Example 438], the negative logarithm of the Kd (pKd) in experiment [1] is more than 8.00. Besides, in experiment [2], the AC50 is less than 750 nM. Besides, the Emax in experiment [2] lay in the range of 80 to 90%. The negative logarithm of the IC50 (pIC50) was more than 6.12 in experiment [3], more than 6.12 in experiment [4] and not above 5.00 in experiment [5].

As for `CNC(=O)c1ccc(NCC#Cc2cn3c(N[C@@H]4CCN(C)C[C@@H]4F)cccc3c2SC(F)F)c(OC)c1` [Example 440], the pKd in experiment [1] is more than 8.00. The AC50 in experiment [2] is less than 750 nM. The compound further gave an Emax in experiment [2] of more than 90%. Also, the pIC50 is more than 6.12 in experiment [3], more than 6.12 in experiment [4] and 5.00 to 5.10 in experiment [5].

For the compound `CN1CC[C@@H](Nc2cccn3c(SC(F)(F)F)c(C#CCNc4ccc(C(=O)NC[C@@H]5COCCO5)cc4)cc23)[C@@H](F)C1` [Example 441], the pKd in experiment [1] was more than 8.00. The AC50 in experiment [2] is less than 750 nM. In experiment [2], the Emax was more than 90%. Further, the pIC50 in experiment [3] is more than 6.12; in experiment [4], more than 6.12; in experiment [5] it was not above 5.00.

For `[2H]C([2H])([2H])Oc1cc(C(=O)NC)ccc1NCC#Cc1cc2c(N[C@@H]3CCN(C)C[C@@H]3F)cccn2c1SC(F)(F)F` [Example 442, 4-((3-(8-(((3S,4R)-3-fluoro-1-methylpiperidin-4-yl)amino)-3-((trifluoromethyl)thio)indolizin-2-yl)prop-2-yn-1-yl)amino)-3-(methoxy-d3)-N-methylbenzamide], in experiment [1], the pKd is more than 8.00. Moreover, the AC50 in experiment [2] is less than 750 nM. The compound also gave an Emax in experiment [2] of 80 to 90%. For the same compound, the pIC50 in experiment [3] is more than 6.12; in experiment [4], more than 6.12; in experiment [5] it was 5.10 to 5.30.

On to `CNC(=O)c1ccc(OC)c(NCC#Cc2cc3c(N[C@@H]4CN(C)C[C@@H]4F)cccn3c2SC(F)(F)F)c1` [Example 444], for which, in experiment [1], the pKd is more than 8.00. For the same compound, the AC50 in experiment [2] was less than 750 nM. The compound also returned an Emax in experiment [2] of more than 90%. Further, the pIC50 in experiment [3] is more than 6.12; in experiment [4] it was more than 6.12; in experiment [5], not above 5.00.

For `COc1nc(P(C)(C)=O)ncc1NCC#Cc1cc2c(N[C@@H]3CCN(C)C[C@@H]3F)cccn2c1SC(F)(F)F` [Example 445, 2-(3-{[2-(dimethylphosphoryl)-4-methoxypyrimidin-5-yl]amino}prop-1-yn-1-yl)-N-[(3S,4R)-3-fluoro-1-methylpiperidin-4-yl]-3-[(trifluoromethyl)sulfanyl]indolizin-8-amine], the pKd in experiment [1] was more than 8.00. Also, the AC50 in experiment [2] is less than 750 nM. This compound came in with an Emax in experiment [2] of more than 90%. Moreover, the values for the pIC50 in experiment [3], in experiment [4] and in experiment [5] were more than 6.12, more than 6.12 and not above 5.00, respectively.

For `CNC(=O)c1ccc(NCC#Cc2cc3c(N[C@@H]4CCN(C)C[C@@H]4F)nccn3c2SC(F)(F)F)c(O)c1` [Example 446, 4-{[3-(1-{[(3S,4R)-3-fluoro-1-methylpiperidin-4-yl]amino}-6-[(trifluoromethyl)sulfanyl]pyrrolo[1,2-a]pyrazin-7-yl)prop-2-yn-1-yl]amino}-3-hydroxy-N-methylbenzamide], in experiment [1], the pKd was more than 8.00. For the same compound, in experiment [2], the AC50 was less than 750 nM. In addition, in experiment [2], the Emax is more than 90%. Also, the pIC50 in experiment [3] was more than 6.12; in experiment [4], more than 6.12; in experiment [5], not above 5.00.

Regarding `CN1CC[C@@H](Nc2cccn3c(SC(F)(F)F)c(C#CCNc4ccc(C(=O)NCC5COC5)cc4)cc23)[C@@H](F)C1` [Example 447], the pKd in experiment [1] is more than 8.00. For the same compound, in experiment [2], the AC50 was less than 750 nM. This compound returned an Emax in experiment [2] of more than 90%. The pIC50 in experiment [3] was more than 6.12; in experiment [4] it was more than 6.12; in experiment [5], not above 5.00.

As for `CNC(=O)c1ccc(OC)c(NCC#Cc2cc3c(N[C@@H]4CCN(C[C@H](C)O)C[C@@H]4F)nccn3c2SC(F)(F)F)c1` [Example 448], the pKd in experiment [1] was more than 8.00. In addition, the AC50 in experiment [2] was less than 750 nM. In experiment [2], this compound registered an Emax of more than 90%. Moreover, the pIC50 in experiment [3] is more than 6.12; in experiment [4], more than 6.12; in experiment [5], 5.10 to 5.30.

For the compound `CN1CC[C@@H](Nc2cccn3c(SC(F)(F)F)c(C#CCNc4ccc(P(C)(C)=O)c5c4OCC5)cc23)[C@@H](F)C1` [Example 449], in experiment [1], the pKd was more than 8.00. Moreover, the AC50 in experiment [2] is less than 750 nM. Further, the Emax in experiment [2] is more than 90%. Moreover, the pIC50 in experiment [3] is more than 6.12; in experiment [4] it was more than 6.12; in experiment [5], 5.10 to 5.30.
